Read-outs that look alike come from different tables or passages of the source.

In one data set the test system is rgRSV224 virus. Briefly: microbe, parasite or virus in culture. It counts as cell-based, respiratory syncytial virus (RSV). The note with it: read-out: WT activity EC50. The procedure: Black 96-well clear-bottom microtiter plates (Corning, Amsterdam, The Netherlands) were filled in duplicate using a customized robot system with serial 4-fold dilutions of compound in a final volume of 50 μl culture medium [RPMI medium without phenol red, 10% FBS, 0.04% gentamycin (50 mg/mL) and 0.5% DMSO]. Then, 100 μl of a HeLa cell suspension (5×10^4 cells/mL) in culture medium was added to each well followed by the addition of 50 μl rgRSV224 (MOI=0.02) virus in culture medium using a multidrop dispenser (Thermo Scientific, Erembodegem, Belgium). rgRSV224 virus is an engineered virus that includes an additional GFP gene (Hallak et al, 2000) and was in-licensed from the NIH (Bethesda, Md., USA). Medium, virus- and mock-infected controls were included in each test. Cells were incubated at 37° C. in a 5% CO2 atmosphere. Three days post-virus exposure, viral replication was quantified by measuring GFP expression in the cells by a MSM laser microscope (Tibotec, Beerse, Belgium). […] In parallel, compounds were incubated for three days in a set of white 96-well microtitier plates (Corning) and the cytotoxicity of compounds in HeLa cells was determined by measuring the ATP content of the cells using the ATPlite kit (PerkinElmer, Zaventem, Belgium) according to the manufacturer's instructions.

A short description of data set [1]: Cytotoxicity in HeLa cells by ATP content (ATPlite kit). It is filed as cell-based. The note with it: human; Table 1; HeLa cells, three days, ATP content; read-out: Tox CC50. How it is done: (§1) Black 96-well clear-bottom microtiter plates (Corning, Amsterdam, The Netherlands) were filled in duplicate using a customized robot system with serial 4-fold dilutions of compound in a final volume of 50 μl culture medium [RPMI medium without phenol red, 10% FBS, 0.04% gentamycin (50 mg/mL) and 0.5% DMSO]. Then, 100 μl of a HeLa cell suspension (5×10^4 cells/mL) in culture medium was added to each well followed by the addition of 50 μl rgRSV224 (MOI=0.02) virus in culture medium using a multidrop dispenser (Thermo Scientific, Erembodegem, Belgium). rgRSV224 virus is an engineered virus that includes an additional GFP gene (Hallak et al, 2000) and was in-licensed from the NIH (Bethesda, Md., USA). Medium, virus- and mock-infected controls were included in each test. Cells were incubated at 37° C. in a 5% CO2 atmosphere. Three days post-virus exposure, viral replication was quantified by measuring GFP expression in the cells by a MSM laser microscope (Tibotec, Beerse, Belgium). The EC50 was defined as the 50% inhibitory concentration for GFP expression. In parallel, compounds were incubated for three days in a set of white 96-well microtitier plates (Corning) and the cytotoxicity of compounds in HeLa cells was determined by measuring the ATP content of the cells using the ATPlite kit (PerkinElmer, Zaventem, Belgium) according to the manufacturer's instructions. The CC50 was defined as the 50% concentration for cytotoxicity.
(ATP-based viability assays read luminescence as a measure of living cells.)

The next data set deals with HeLa cells. The data set is described as above. It is filed as cell-based. How it is done:
as §1

[2] abbreviates: Table 1, rgRSV224 in HeLa cells, GFP expression three days post-virus exposure.
Where [3] appears, read: Table 1, HeLa cells, three days, ATP content, read-out: Tox CC50.

The EC50 is the concentration giving half of the maximal effect. As usually defined, the CC50 is the concentration at which the toxic effect on the cells reaches its halfway point. On to `CS(=O)(=O)CCCn1c(Cn2c(=O)n(C3CC3)c3ccncc32)nc2cc(Br)ccc21` [P2, 3-({5-Bromo-1-[3-(methylsulfonyl)propyl]-1H-benzimidazol-2-yl}methyl)-1-cyclopropyl-1,3-dihydro-2H-imidazo[4,5-c]pyridin-2-one], for which the EC50 in the data set on rgRSV224 virus (human respiratory syncytial virus, HeLa, 72 h) turned out to be 0.034 nM. Also, the CC50 at 3 days in data set [1] is more than 9840 nM.
For `O=c1n(Cc2nc3cc(Br)ccc3n2CCCCF)c2cc(F)ccc2n1C1CC1` [P23], the EC50 in the data set on rgRSV224 virus (setting [2]) is less than 1.6 nM. In the data set with HeLa cells (setting [3]), the CC50 was more than 9840 nM.
As to `CS(=O)(=O)CCCn1c(Cn2c(=O)n(C3CC3)c3ccccc32)nc2cc(Cl)ccc21` [P24], the EC50 in the data set on rgRSV224 virus (setting [2]) is less than 0.15 nM. Further, the CC50 in the data set on HeLa cells is more than 9840 nM.
Turning to `O=c1n(Cc2nc3cc(Cl)ccc3n2CCCCF)c2ccccc2n1C1CC1` [P25], in the data set on rgRSV224 virus (setting [2]), the EC50 is less than 0.15 nM. Also, in the data set with HeLa cells (setting [3]), the CC50 is more than 9840 nM.
Take `N#CCCCn1c(Cn2c(=O)n(C3CC3)c3ccncc32)nc2cc(Cl)ccc21` [P26]: the EC50 in the data set on rgRSV224 virus (setting [2]) is less than 0.15 nM. The 50% cytotoxic concentration (CC50) with HeLa cells (setting [3]) is more than 9840 nM.
`N#CCCCn1c(Cn2c(=O)n(C3CC3)c3ccncc32)nc2cc(Br)ccc21` [P27]: the EC50 with rgRSV224 virus (setting [2]) is less than 0.15 nM. Also, in the data set with HeLa cells (setting [3]), the CC50 was more than 9840 nM.

Values taken from patent publication US8865705B2, “Benzimidazole respiratory syncytial virus inhibitors” (Janssen R&D Ireland, priority 2010, dated 2014).
